Test results published in PMC5796268, “Affinity Purification and Comparative Biosensor Analysis of Citrulline-Peptide-Specific Antibodies in Rheumatoid Arthritis” (International Journal of Molecular Sciences, 2018).

Test system: citrulline-containing peptides / affinity-purified ACPA IgG
Experiment: ELISA cross-reaction of affinity-purified ACPA IgG fractions with Cit-peptides
Format: binding, human
Conditions: ACPA 0.1 mg/mL, OD ratio Cit/Arg peptide
Excerpt: To see if the affinity-purified anti-peptide antibodies were able to recognize a different peptide, ELISA plates were coated with the individual peptides directly (fibrin, enolase, and EBNA-2) or indirectly, using neutravidin-coated plates and biotinylated peptides (filaggrin, collagen II, or vimentin) and the binding of the affinity-purified IgG fractions was monitored (Figure 2).
Figure 2 Reactivity of affinity-purified IgG fractions with the relevant and irrelevant citrulline-containing peptides. OD ratios that are OD with Cit/OD with Arg-containing peptides are shown. Cut-off values for each Cit- and Arg-containing peptide pair were calculated from OD indexes of 120 healthy samples (the means of OD indexes + 2 × SD). These were below 1.5 for all peptides. Results of a typical experiment.
ELISA was used to determine serum IgG ACPA concentrations and to test ACPA cross-reactions. The biotinylated, citrulline- or arginine-containing filaggrin19, vimentin, collagen II and the multi-epitope peptides were added at 1 µg/mL to the Medisorp plates (Greiner Bio-One GmbH, Kremsmünster, Germany) pre-coated with 5 µg/mL Neutravidin (Pierce Biotechnology, Rockford, IL, USA) overnight, at 4 °C, and then the plates were incubated for 1 h at 37 °C. […]
Serum samples were diluted 1:100. […] Plates were read at 450 nm with THERMO Multiscan EX ELISA-reader.

H-Ttds-AXAXGSGSGXGXG-NH2 [multi-epitope, novel peptide consisting of two-two copies of Ala-Cit and Cit-Gly motifs separated with a neutral spacer, SGSG]
binding of peptide to other affinity-purified ACPA IgG: bound to almost all other ACPA IgG, fibrin β was the exception
